Laboratory results from patent US20260256812A1, “COMPOSITION COMPRISING A COMBINATION OF A CORTICOSTEROID AND A FLAVONOID FOR USE IN TREATING EYE-RELATED DISEASES” (priority 2023, published 2026).

Assays:
[1] = tested on: intracellular ROS in ARPE-19 cells; assay: DCFH-DA intracellular ROS assay by flow cytometry; assay type: cell-based, human
Protocol: ARPE-19 cells were seeded onto 6-well plates at a seeding density of 25×10^4 cells/well and incubated for 24 hr. At the 24 hr time point cells were stimulated with stimulants to induce oxidative stress. […] Upon incubation with dye, cells were detached using trypsin and resuspended in PBS for analysis using flow cytometry.
Upon stimulation and treatment, the intracellular ROS levels were measured using flow cytometry to assess the anti-oxidant effect of the treatments. The oxidation of DCFH-DA to 2′-7′dichlorofluorescein (DCF) was used for the detection of intracellular ROS levels including nitrogen dioxide and hydroxyl radicals. The cells will take up the DCFH-DA dye where cellular esterase cleaves off the acetyl groups, resulting in the formation of DCFH (2′,7′-dichlorodihydrofluorescein). Oxidation of DCFH in the presence of intracellular ROS leads to the formation of DCF. This DCF fluorescent molecule can be detected using a flow cytometer by mean fluorescence intensity (MFI).

[2] = tested on: ARPE-19 cells; assay: Cytotoxicity evaluation by acid phosphatase assay (APA); assay type: cell-based, human
Protocol: ARPE-19 (adult retinal pigment epithelium-19) cell line was cultured using cell culture media containing a 1:1 mixture of DMEM and F-12 nutrient mixture. The media was supplemented with 10% FBS and 1% penicillin-streptomycin antibiotic mixture. During the culture, cells were maintained at 37° C. with 5% CO2 in a humidified incubator and sub-cultured with trypsin upon confluency.
Cytotoxicity evaluation of the drugs, both individually and in combination, was performed using the acid phosphatase assay (APA). The cytotoxicity assay was performed on TA and QCN from 5 to 250 μM and 1 to 250 μM, respectively. After investigating individual drugs, drug combinations were tested as outlined in Table 1.
Initially ARPE-19 cells were seeded onto a 96-well plate at a seeding density of 5000 cells/well containing 100 μL of cell culture media and cultured for 24 hr. After 24 hr, treatments were added to the wells and incubated for the period of the study (24 h and 48 hr). After the treatment period, media was removed, and cells were washed twice with PBS. Upon washing, 100 μL of 10 mM PNPP substrate dissolved in 0.1 M sodium acetate buffer was added to the wells and incubated for 2 hr. Finally, 50 μL of stop solution (1 M sodium hydroxide) was added and the plate was analysed in the plate reader at 405 nm.

[3] = tested on: ARPE-19 cells; assay: Scratch (wound healing, cell migration) assay; assay type: cell-based, human; settings: QCN 20 μM; TA 100 μM; TA 100+QCN 20 μM; 1% FBS
Protocol: For the scratch or wound healing assay cells were seeded onto six-well plates with a seeding density of 25×10^4 cells/well. Upon reaching 80-90% confluency, a sterile 200 μL pipette tip was used to scrape the confluent monolayer of cells in a horizontal line. After creating the scratch, cell debris was washed with PBS and the cell culture media containing treatments was added to each well. The scratch was photographed using an Olympus EP50 microscope at 10× magnification at 0, 6, 9, 24, 27 and 30 h. “Image J” software was used to analyse the width of the scratch.
The major cause of irreversible vision loss is the exudative form of AMD, which is characterized by CNV where the newly formed blood vessels protrude from the choroid to the retina through Bruch's membrane. Even though the mechanism of CNV is not fully understood, some pathological studies point to the connection between CNV and sub-RPE deposits. Additionally, focal inflammation leads to focal thinning and damage of Bruch's membrane in patients of AMD. RPE cells are essential for the maintenance of photoreceptor cells as they provide nutrients. But the contact between RPE and photoreceptor cells was disrupted due to the accumulation of sub-RPE deposits and the interference of branched blood vessels. […] Upon seeding 25×10^4 cells/well and reaching around 90% confluency, the wounds were created and measured using image ‘J’ software. […]

[4] = tested on: VEGF-C; assay: Anti-VEGF activity, VEGF-C ELISA on LPS-stimulated ARPE-19 cells; assay type: cell-based, human
Protocol: (§1) The human IL-6, IL-8, MCP-1, and VEGF-C ELISA kits were used according to the manufacturer's protocol to investigate the cytokine secretions in the cell supernatants. Cells were seeded onto a 24-well plate at a seeding density of 3×10^4 cells/well with 500 μL of cell culture media and cultured for 24 hr. Cells were kept overnight in low serum media (with 1% FBS) to synchronise their growth phase before stimulating inflammation. After 24 hr cells were stimulated with 10 μg/mL LPS to induce inflammation for a duration of 24 hr. Upon stimulation, cells were exposed to various treatments of drugs alone and in combination for 24 hr. After the treatment duration media conditioned by treated cells were collected and analysed for the cytokines and VEGF-C secretions using the ELISA kits. ELISA was performed according to the manufacturer's protocol.

[5] = tested on: IL-6; assay: IL-6 ELISA on ARPE-19 cell supernatants; assay type: cell-based, human
Protocol: as §1, with “After 24 hr cells were stimulated with 10 μg/mL LPS to induce inflammation for a duration of 24 hr.” left out

[6] = DPPH antioxidant assay
Protocol: The DPPH assay was performed in a 96-well plate where 20 μL of methanolic DPPH solution was added to 180 μL of methanolic solutions of treatments. Based on the outcome from anti-inflammatory studies, the higher concentrations of TA and QCN, both individually and in combination were investigated for antioxidant activity (TA 75, 100 μM and QCN 15, 20 μM). This reaction mixture was incubated for 30 min in darkness at room temperature and the absorbance was measured at 517 nm using a microplate reader.

[7] = 10 μg/mL LPS 24 hr, then 24 hr treatment
[8] = TA 10 to 250 μM, 24 hr and 48 hr

OO [H2O2, hydrogen peroxide]
MFI of stimulated stained cells ([1]; HP at 300 μM, unstimulated stained printed as 3.73±0.29, P value <0.05): 2.01±0.10
cell viability with stimulant ([2]; H2O2 200 and 300 μM, up to 48 h): decrease in cell viability

O=c1c(O)c(-c2ccc(O)c(O)c2)oc2cc(O)cc(O)c12 [QCN, quercetin]
migration of the cells [3]: enhanced the migration
VEGF-C concentration ([4]; QCN 20 μM, control LPS stimulated 1.96±2.05): 0.83 ± 0.02 µg/mL
expression of VEGF-C compared to LPS stimulated cells ([4]; TA 75, 100 μM, QCN 15, 20 μM, individually and in combination): better suppression
IL-6 expression compared to LPS stimulated cells [5, 7]: decreased
concentration showing maximum inhibition of IL-6 expression [5, 7]: 20 µM
generated ROS (MFI) compared to control stimulated stained cells ([1]; 300 μM H2O2, TA 75, 100 μM, QCN 15, 20 μM, individually and in combination, 24 hr): significantly suppressed
inhibition of DPPH ([6]; QCN 20 μM): 66.71±0.61%
anti-oxidant effect on DPPH free radical ([6]; TA 75, 100 μM, QCN 15, 20 μM, 30 min): strong anti-oxidant effect
cell viability ([2]; QCN 1 to 20 μM): more than 90%
effect on cells at higher concentrations ([2]; QCN above 25 μM, up to 250 μM): toxic effects
cell viability ([2]; QCN concentration up to 25 μM, 24 hr and 48 hr): more than 80%

CC1(C)O[C@@H]2C[C@H]3[C@@H]4CCC5=CC(=O)C=C[C@]5(C)[C@@]4(F)[C@@H](O)C[C@]3(C)[C@]2(C(=O)CO)O1 [TA, triamcinolone acetonide]
concentration showing maximum inhibition of IL-6 expression [5, 7]: 100 µM
cell morphology [2, 8]: no changes in cell morphology
viability of cells [2, 8]: not affected

lipopolysaccharide [LPS]
IL-6 cytokine on stimulation ([5]; LPS stimulation from 10 to 50 μg/mL): consistently increased
cytotoxicity of stimulant ([2]; LPS 0.5 to 100 μg/mL, up to 48 h): non-toxic
